Assay results as given in ChEMBL document CHEMBL4725238, “Methylene blue-based 7-nitro-1,2,3-benzoxadiazole NIR fluorescent probe triggered by HS” (Bioorg Med Chem Lett, 2020).
Active and inactive are the calls of the source. The rule behind the calls is not given here.

Assays:
[1] = Thiocyanate reactivity in pH 7 C2H5OH/PBS assessed as change in fluorescence at 50 uM
[2] = Cytotoxicity against human HCT-116 cells assessed as cell viability up to 50 uM incubated for 24 hrs by CCK8 assay relative to control; type: cell-based; settings: read-out: Activity
[3] = Nitrate reactivity in pH 7 C2H5OH/PBS assessed as change in fluorescence at 50 uM
[4] = Sulfate reactivity in pH 7 C2H5OH/PBS assessed as change in fluorescence at 50 uM
[5] = Glutathione reactivity in pH 7 C2H5OH/PBS assessed as change in fluorescence at 50 uM
[6] = Chloride reactivity in pH 7 C2H5OH/PBS assessed as change in fluorescence at 50 uM
[7] = Iodide reactivity in pH 7 C2H5OH/PBS assessed as change in fluorescence at 50 uM
[8] = […] reactivity in pH 7 C2H5OH/PBS assessed as change in fluorescence at 50 uM
[9] = Acetate reactivity in pH 7 C2H5OH/PBS assessed as change in fluorescence at 50 uM
[10] = Bromide reactivity in pH 7 C2H5OH/PBS assessed as change in fluorescence at 50 uM
[11] = Drug accumulation in human HCT116 cells up to 100 uM in presence of Na2S; type: ADME, cell-based; settings: hct-116
[12] = Potassium reactivity in pH 7 C2H5OH/PBS assessed as change in fluorescence at 50 uM
[13] = Bicarbonate reactivity in pH 7 C2H5OH/PBS assessed as change in fluorescence at 50 uM
[14] = Phosphoric acid reactivity in pH 7 C2H5OH/PBS assessed as change in fluorescence at 50 uM
[15] = Hydrogen sulphide reactivity in pH 7 C2H5OH/PBS assessed as change in fluorescence at 50 uM
[16] = Sodium reactivity in pH 7 C2H5OH/PBS assessed as change in fluorescence at 50 uM
[17] = Cytotoxicity against human HCT-116 cells assessed as cell viability at 10 uM incubated for 24 hrs by CCK8 assay relative to control; type: cell-based; settings: read-out: Activity
[18] = Cysteine reactivity in pH 7 C2H5OH/PBS assessed as change in fluorescence at 50 uM
[19] = Zinc reactivity in pH 7 C2H5OH/PBS assessed as change in fluorescence at 50 uM

In the case of CN(C)c1ccc2c(c1)Sc1cc(N(C)C)ccc1N2c1ccc([N+](=O)[O-])c2nonc12, the Activity [1] is reported as “inactive”, the viability at 24 h [2] is reported as 64% and the Activity [3] is reported as “inactive”. The Activity [4] was “inactive”, the Activity [5] was “Active” and the Activity [6] was “inactive”. For the same compound, the Activity [7] was “inactive”, the Activity [8] was “inactive” and the Activity [9] was “inactive”. For the same compound, the Activity [10] was “inactive”, the Drug uptake [11] was “Active” and the Activity [12] was “inactive”. The Activity [13] was “inactive”, the Activity [14] was “inactive” and the Activity [15] was “Active”. For the same compound, the Activity [16] was “inactive”, the viability at 24 h, 10 µM [17] was greater than 85% and the Activity [18] was “Active”. For the same compound, the Activity [19] was “inactive”.
